# According to US20050222253A1, “Anti-cancer nitro- and thia-fatty acids” (priority 1999, published 2005):
# “Also recorded” adds a separate entry of the source.
# How the values were obtained:
# 15-LO [1] = molecular target: T1, 15-LO (Glycine max, UniProt P08170); test: 15-LO catalysed oxidation of the nitro compounds (substrate test); format: biochemical, soybean; conditions: pH 9.0 buffer, 234 nm
# T1 construct: purchased Sigma Chemical Company
# T1 sequence (P08170 1-839): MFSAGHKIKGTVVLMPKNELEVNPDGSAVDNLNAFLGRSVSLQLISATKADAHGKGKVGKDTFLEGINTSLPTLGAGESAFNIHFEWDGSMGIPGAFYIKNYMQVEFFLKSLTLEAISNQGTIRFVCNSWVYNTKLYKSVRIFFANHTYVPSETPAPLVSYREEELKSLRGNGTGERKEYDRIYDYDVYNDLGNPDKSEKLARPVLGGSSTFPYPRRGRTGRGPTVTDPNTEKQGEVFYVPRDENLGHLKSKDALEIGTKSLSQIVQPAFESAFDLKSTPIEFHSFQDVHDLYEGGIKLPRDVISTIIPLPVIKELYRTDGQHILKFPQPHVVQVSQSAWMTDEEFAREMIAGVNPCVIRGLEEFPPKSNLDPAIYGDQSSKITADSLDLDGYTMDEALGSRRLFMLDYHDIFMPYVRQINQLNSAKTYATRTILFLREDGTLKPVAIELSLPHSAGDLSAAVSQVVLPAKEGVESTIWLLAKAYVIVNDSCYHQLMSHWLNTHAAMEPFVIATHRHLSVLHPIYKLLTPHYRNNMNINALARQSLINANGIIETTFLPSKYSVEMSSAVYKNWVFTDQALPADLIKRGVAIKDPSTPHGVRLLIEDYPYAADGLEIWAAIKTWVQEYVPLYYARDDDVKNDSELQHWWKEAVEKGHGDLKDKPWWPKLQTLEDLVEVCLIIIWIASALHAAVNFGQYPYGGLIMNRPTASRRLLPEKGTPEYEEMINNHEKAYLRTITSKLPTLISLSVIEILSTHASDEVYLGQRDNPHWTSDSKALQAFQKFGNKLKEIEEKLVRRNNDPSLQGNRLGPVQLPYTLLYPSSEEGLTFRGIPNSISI
# Procedure: (§1) Based on this consideration, 5-LO, 12-LO and 15-LO catalysed oxidation of the nitro compounds (4a, 4b, 6a, 6b, 8a and 8b) was investigated. Each of the nitro compounds was treated with 15-LO in pH 9.0 buffer (or 5-LO in pH 6.3 buffer and 12-LO in pH 7.4 buffer), and the formation of 15-hydroperoxy derivatives (or 5-hydroperoxy or 12-hydroperoxy derivatives) over time was monitored by LW spectroscopy at 234 nm.
# 12-LO [2] = molecular target: T2, 12-LO (Sus scrofa, UniProt P16469); test: Effect on 12-LO catalysed oxidation of arachidonic acid; format: biochemical, porcine; conditions: preliminary experiment; result in words
# T2 construct: purchased Cayman Chemical Company
# T2 sequence (P16469 1-663): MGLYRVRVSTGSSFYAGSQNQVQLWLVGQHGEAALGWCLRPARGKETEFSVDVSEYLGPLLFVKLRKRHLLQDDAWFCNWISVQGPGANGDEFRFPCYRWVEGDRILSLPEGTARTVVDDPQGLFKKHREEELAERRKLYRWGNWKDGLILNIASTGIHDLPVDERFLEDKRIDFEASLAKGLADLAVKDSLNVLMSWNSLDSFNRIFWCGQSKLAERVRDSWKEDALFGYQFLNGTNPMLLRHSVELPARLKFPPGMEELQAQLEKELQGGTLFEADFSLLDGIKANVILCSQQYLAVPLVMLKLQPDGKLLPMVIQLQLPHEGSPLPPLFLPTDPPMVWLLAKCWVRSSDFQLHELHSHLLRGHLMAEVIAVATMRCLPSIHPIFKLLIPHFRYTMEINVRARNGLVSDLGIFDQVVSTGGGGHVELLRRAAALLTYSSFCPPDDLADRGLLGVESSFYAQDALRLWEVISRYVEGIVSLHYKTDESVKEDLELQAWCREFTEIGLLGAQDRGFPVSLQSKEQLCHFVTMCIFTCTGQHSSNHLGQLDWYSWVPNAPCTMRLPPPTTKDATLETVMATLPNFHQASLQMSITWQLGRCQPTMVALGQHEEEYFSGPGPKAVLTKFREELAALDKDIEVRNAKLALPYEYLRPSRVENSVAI
# Procedure: as §1
# A number of Lx compounds were tested for anti 5-LOX and 12-LOX activities in the human breast cancer cell line, MCF-7. […] The ability of 5-LOX and 12-LOX to produce oxidated products of 20:4n-6 with a different absorption wavelength in the presence of nitroso-PUFA was examined and is shown in the progress curves in FIG. 6. […] Within cells, activation of 5-LOX is facilitated by 5-LOX activating protein (FLAP). Thus, in intact cells, Lx7 and Lx9 may be able to activate 5-LOX at lower concentrations than those required in the purified enzyme system shown in FIG. 6. […] By being able to activate 5-LOX and suppress 12-LOX, these compounds have the desired characteristics of anti-breast cancer agents as discussed previously.
# (§2) 15-LO was obtained from Sigma Chemical Company, and 12-LO from Cayman Chemical Company. Arachidonic acid 1, linolenyl alcohol 57a, gamma linolenyl alcohol 5b, arachidonyl alcohol 57c and docosahexaenyl alcohol 57d were purchased from Nu-Chek Prep. Inc. Elysian, Minn., USA. Other chemicals were commercially available from Aldrich Chemical Company.
# 12-LO [3] = molecular target: T2, 12-LO; test: 12-LO catalysed oxidation of the nitro compounds (substrate test); format: biochemical, porcine; conditions: pH 7.4 buffer, 234 nm
# Procedure: as §1
# 5-LO [4] = molecular target: T3, 5-LO (Solanum tuberosum, UniProt P37831); test: Effect on 5-LO catalysed oxidation of arachidonic acid; format: biochemical; conditions: preliminary experiment; purified enzyme; result in words
# Procedure: as §1, with “nm. […]” for “nm.”
# 15-LO [5] = molecular target: T1, 15-LO; test: Effect on 15-LO catalysed oxidation of arachidonic acid; format: biochemical, soybean; conditions: preliminary experiment, result in words
# 5-LO [6] = molecular target: T3, 5-LO; test: 5-LO catalysed oxidation of the nitro compounds (substrate test); format: biochemical; conditions: pH 6.3 buffer, 234 nm
# Procedure: as §1
# MCF-7 cells = test: Killing of MCF-7 breast cancer cells in vitro; format: cell-based, human; conditions: in vitro (FIG. 7); compared with 20:4n-6 toxicity
# Source text: While interference with 5-LOX or 12-LOX activity individually impacts on growth rates of human breast cancer MCF-7 cells^(55,56), the simultaneous modification of the activities of both enzymes at once may cause death. […] Lx4, a nitroso-compound with the same number of carbon atoms and degree of unsaturation as Lx9 but lacking a COOH group, was ineffective (FIG. 7).
# 15-LO [7] = molecular target: T1, 15-LO; test: Effect on 15-LO catalysed oxidation of arachidonic acid; format: biochemical, soybean; conditions: varying concentrations of compound
# Procedure: as §1
# The inhibitor constant (Ki or KI) of compound 8a was also determined.
# as §2
# [8] = listed as (all-Z)-1-nitrotricosa-8,11,14,17-tetraenoic acid
# T3 sequence (P37831 whole entry): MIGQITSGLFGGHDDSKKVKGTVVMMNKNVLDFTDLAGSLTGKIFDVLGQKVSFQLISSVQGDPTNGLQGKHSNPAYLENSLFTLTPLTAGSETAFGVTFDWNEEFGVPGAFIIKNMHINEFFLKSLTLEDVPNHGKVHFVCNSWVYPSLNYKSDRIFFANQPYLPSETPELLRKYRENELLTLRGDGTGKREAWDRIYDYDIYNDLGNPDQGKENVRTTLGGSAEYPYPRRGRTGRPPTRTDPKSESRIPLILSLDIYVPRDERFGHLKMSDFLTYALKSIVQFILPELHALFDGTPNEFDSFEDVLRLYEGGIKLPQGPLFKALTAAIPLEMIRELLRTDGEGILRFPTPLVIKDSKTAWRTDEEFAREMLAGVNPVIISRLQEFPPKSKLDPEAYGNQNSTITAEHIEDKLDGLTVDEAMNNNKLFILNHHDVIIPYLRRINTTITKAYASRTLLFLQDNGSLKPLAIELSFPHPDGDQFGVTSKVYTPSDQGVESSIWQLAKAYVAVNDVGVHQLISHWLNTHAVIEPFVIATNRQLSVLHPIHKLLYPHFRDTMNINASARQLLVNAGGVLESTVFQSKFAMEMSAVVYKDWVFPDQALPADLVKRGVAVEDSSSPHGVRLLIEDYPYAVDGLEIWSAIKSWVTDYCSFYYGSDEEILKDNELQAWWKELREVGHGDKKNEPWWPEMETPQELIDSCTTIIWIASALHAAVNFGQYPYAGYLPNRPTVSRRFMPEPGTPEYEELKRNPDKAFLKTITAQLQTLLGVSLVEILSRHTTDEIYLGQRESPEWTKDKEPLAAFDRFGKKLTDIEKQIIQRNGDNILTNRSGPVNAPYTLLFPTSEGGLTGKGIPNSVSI
smiles,measurement,setting,value
"CCCCC/C=C\C/C=C\C/C=C\C/C=C\CCCC(CCC(=O)O)[N+](=O)[O-] (centres unmarked) [Lx7, (all-Z)-4-Nitrotricosa-8,11,14,17-tetraenoic acid]",Substrate for 15-LO (formation of 15-hydroperoxy derivative),15-LO [1]; listed as 6b,served as a substrate
same,Substrate for 15-LO (formation of 15-hydroperoxy derivative),15-LO [1]; [8],good substrate; also recorded: comparable to that of arachidonic acid
same,Effect on 12-LO catalysed oxidation of AA,12-LO [2],Substrate
same,Substrate for 12-LO (formation of 12-hydroperoxy derivative),12-LO [3],substrate for 12-LOX
same,Substrate for 12-LO (formation of 12-hydroperoxy derivative),12-LO [3]; listed as 6b,served as a substrate
same,Substrate for 12-LO (formation of 12-hydroperoxy derivative),12-LO [3]; [8],good substrate
same,Effect on 5-LO catalysed oxidation of AA,5-LO [4],can activate 5-LOX; also recorded: Activatory
same,Effect on 15-LO catalysed oxidation of AA,15-LO [5],Substrate
same,Substrate for 5-LO (formation of 5-hydroperoxy derivative),5-LO [6],not for 5-LO
same,Killing of MCF-7 tumour cells,MCF-7 cells,kill these tumour cells
"CCCCCCCCCCCCCCCCCC(CCC(=O)O)(CCC(=O)O)[N+](=O)[O-] [Lx8, 3-Heptadecyl-3-nitropentane-1,5-dicarboxylic acid]",Effect on 12-LO catalysed oxidation of AA,12-LO [2],Activatory
same,Inhibition pattern on 15-LO (1/v vs 1/[s]),15-LO [7],mixed inhibition pattern
same,melting point,,102 °C
same,Effect on 5-LO catalysed oxidation of AA,5-LO [4],Nil
same,Effect on 15-LO catalysed oxidation of AA,15-LO [5],Inhibitory
same,Effect on 15-LO catalysed oxidation of AA,"15-LO [5]; listed as 3-heptadecyl-3-nitropentane-1,5-dicarboxylic acid",selective inhibitors
same,Effect on 15-LO catalysed oxidation of AA,15-LO [5]; listed as 8a,inhibitory effect
